Test system: NO production by LPS-stimulated cultured murine macrophages
Assay: Inhibition of NO production (Griess nitrite assay) in LPS-stimulated cultured murine macrophages
Type: cell-based, murine (ICR mice peritoneal macrophages; RAW264.7)
Settings: for inhibition at 0.269 µg/mL: beta-carotene alone at 0.269 μg/ml
Procedure: The aim of this study was to investigate the effect of different combinations of NS oil and carotenoids on the in vitro production of the inflammatory mediator NO by LPS-stimulated cultured murine macrophages.
Macrophage isolation and cell culture—Peritoneal macrophages were collected from the peritoneal cavity of 6-8 week old male ICR mice (Harlan, Israel) that had been given an intraperitoneal injection of 1.5 ml of thioglycollate broth (4%) 4 days before harvest. […] Peritoneal macrophages and murine macrophage cell line RAW264.7 were cultured RPMI 1640 medium containing 10% FCS, 2 mM L-glutamine; 100 U/ml penicillin; 100 μg/ml streptomycin (Beit-Haemek, Israel) in 96-well plates (1×10^6 cells/well) at 37° C. in 5% CO2 atmosphere. Cells were stimulated with LPS (0.1-1 μg/ml) in the presence or absence of NS oil acid and/or one or more of the following carotenoids: astaxanthin, lutein and beta-Carotene. The following stock solutions of each active agent were used to prepare the various dilutions tested: • Cold-pressed NS oil containing 3% thymoquinone and 1.7% free fatty acids (N.S. Oils, Israel). • Lutein 20% (Lycored Ltd., Israel) • Beta-carotene 30% in vegetable oil (Lycored Ltd., Israel) • Astaxanthin oleoresin extracted from microalgae, containing 10% astaxanthin (Algatech, Israel). • Lycopene (present at a concentration of 6.35% in the commercially-available product known as Lyc-O-Mato, obtained from Lycored Ltd., Israel).
The carotenoids were dissolved in DMSO (to a final concentration of 5 mM). The mixture was vortexed and incubated in a water bath at 37° C. (with shaking) for 10 min and then sonicated in a sonicator bath three times for 15 seconds each time. Using this stock solution, the desired concentrations were prepared by the addition of appropriate volumes thereof to warm culture medium.
Appropriate volumes of DMSO (0.1-0.2%) were added to the control tubes and the percent inhibition of NO production in each test tube was calculated in relation to its control.
NO production assay—NO levels in supernatants of cell cultures were determined by assaying nitrite levels using Griess reagent and sodium nitrite as a standard as described in Green, L. C., Wagner, D. A., Glogowski, J., Skipper, P. L., Wishnok, J. S., and Tannenbaum, S. R. (1982) Anal Biochem. 126: 131-138. […]

Compound: C=C(C)[C@@H]1CCC(C)=C[C@H]1c1c(O)cc(CCCCC)cc1O [CBD, cannabidiol]
- inhibition of NO production (Example 2 first study, FIG. 8, CBD alone at 0.0075 μg/ml): did not results in a detectable level of NO inhibition
- inhibition of NO production (Example 2 second study, FIG. 9 upper, CBD alone at 0.005 μg/ml): measurable inhibition of NO production
- inhibition at 0.01 µg/mL (Mus musculus, Macrophage, read-out: inhibition of NO production): < 10%

Compound: CC1=C[C@H](O)CC(C)(C)[C@H]1/C=C/C(C)=C/C=C/C(C)=C/C=C/C=C(C)/C=C/C=C(C)/C=C/C1=C(C)C[C@@H](O)CC1(C)C [lutein]
- inhibition at 0.284 µg/mL (Mus musculus, Macrophage, second study, FIG. 5, lutein alone at 0.284 μg/ml): 6.96%
- inhibition of NO production (first study, FIG. 2, lutein alone at 0.284 μg/ml): did not cause any measurable degree of NO inhibition

Compound: CC1=C(/C=C/C(C)=C/C=C/C(C)=C/C=C/C=C(C)/C=C/C=C(C)/C=C/C2=C(C)CCCC2(C)C)C(C)(C)CCC1 [beta-carotene]
- inhibition at 0.269 µg/mL (Mus musculus, Macrophage, first study, FIG. 3): < 10%
- inhibition at 0.538 µg/mL (Mus musculus, Macrophage, first study, FIG. 3, beta-carotene alone at 0.538 μg/ml): < 20%
- inhibition at 0.269 µg/mL (Mus musculus, Macrophage, second study, FIG. 6): 3.89%

Compound: CC1=C(/C=C/C(C)=C/C=C/C(C)=C/C=C/C=C(C)/C=C/C=C(C)/C=C/C2=C(C)C(=O)[C@@H](O)CC2(C)C)C(C)(C)C[C@H](O)C1=O [astaxanthin]
- inhibition of NO production (Example 1 first study, FIG. 1, astaxanthin alone at 0.298 and 0.596 μg/ml, % of maximal inhibition): 20-25%
- inhibition at 0.298 µg/mL (Mus musculus, Macrophage, Example 4, text summary, astaxanthin only, 0.298 μg/ml): ~20%
- inhibition at 0.298 µg/mL (Mus musculus, Macrophage, Example 4 comparative, column 0.0015 μg/ml TQ of high-FFA NS oil dilution, astaxanthin 0.298 μg/ml, agent alone or combined as labelled): 19.1%
- inhibition at 0.298 µg/mL (Mus musculus, Macrophage, Example 4 comparative, column 0.0030 μg/ml TQ of high-FFA NS oil dilution, astaxanthin 0.298 μg/ml, agent alone or combined as labelled): 21.3%
- inhibition at 0.298 µg/mL (Mus musculus, Macrophage, second study, FIG. 4, astaxanthin alone at 0.298 μg/ml): 19.1%

Compound: CC(C)=CCC/C(C)=C/C=C/C(C)=C/C=C/C(C)=C/C=C/C=C(C)/C=C/C=C(C)/C=C/C=C(\C)CCC=C(C)C [lycopene]
- inhibition at 0.35 µg/mL (Mus musculus, Macrophage, second study, FIG. 7, lycopene alone at 0.35 μg/ml): 13.5%
